Experimental data: ChEMBL document CHEMBL1146131, “3D-QSAR studies of farnesyltransferase inhibitors: a comparative molecular field analysis approach” (Bioorg Med Chem Lett, 2006)

Target: Protein farnesyltransferase (Homo sapiens, UniProt P49354+P49356)
Experiment: Inhibition of FTase
Format: protein-complex assay

Structure (SMILES) | IC50 [nM]
Cn1cncc1C(OCc1ccc(C#N)cc1-c1cccc2cccnc12)c1ccc(C#N)cc1 (stereo not given) | 5250
N#Cc1ccc(C(OCc2ccc(C#N)cc2-c2cccc(Cl)c2)c2cncs2)cc1 (stereo not given) | 4070
Cn1cncc1C(OCc1ccc(Cl)cc1-c1cccc(Cl)c1)c1ccc(C#N)cc1 (stereo not given) | 813
Cn1cncc1C(OCc1ccc(C#N)cc1-c1ccc2c(c1)OC(F)(F)O2)c1ccc(C#N)cc1 (stereo not given) | 1120
Cn1cncc1C(OCc1ccc(C#N)cc1NC(=O)c1ccccc1)c1ccc(C#N)cc1 (stereo not given) | 5010
Cn1cncc1C(OCc1ccc(Cl)cc1-c1ccc(Cl)cc1)c1ccc(C#N)cc1 (stereo not given) | 4900
Cn1cncc1C(OCc1ccc(C#N)cc1NS(=O)(=O)c1cccs1)c1ccc(C#N)cc1 (stereo not given) | 891
Cn1cncc1C(OCc1ccc(C#N)cc1NCc1cc(F)cc(F)c1)c1ccc(C#N)cc1 (stereo not given) | 617
Cn1cncc1C(OCc1ccc(C#N)cc1-c1cccc(OC(F)(F)F)c1)c1ccc(C#N)cc1 (stereo not given) | 851
COc1cccc(-c2cc(Cl)ccc2COC(c2ccc(C#N)cc2)c2cncn2C)c1 (stereo not given) | 912
Cn1cncc1C(OCc1ccc(C#N)cc1-c1cccc(Cl)c1)c1ccc(C(F)(F)F)cc1 (stereo not given) | 1120
Cn1cncc1C(OCc1ccc(C#N)cc1-c1cccc(Cl)c1)c1ccc(C#N)c(F)c1 (stereo not given) | 447
Cn1cncc1C(OCc1ccc(C#N)cc1-c1cccc(Cl)c1)c1ccc(C#N)cc1F (stereo not given) | 776
COc1cccc(-c2cc(C#N)ccc2COC(c2ccc(C#N)c(Cl)c2)c2cncn2C)c1 (stereo not given) | 977
COc1cccc(-c2cc(N)ccc2COC(c2ccc(C#N)cc2)c2cncn2C)c1 (stereo not given) | 40700
COc1cccc(-c2cc([N+](=O)[O-])ccc2COC(c2ccc(C#N)cc2)c2cncn2C)c1 (stereo not given) | 1120
COc1cccc(-c2cc(C#N)ccc2COC(c2ccc(Cl)cc2)c2cncn2C)c1 (stereo not given) | 2040
Cc1ccc(S(=O)(=O)Nc2cc(C#N)ccc2COC(c2ccc(C#N)cc2)c2cncn2C)cc1 (stereo not given) | 1000
Cn1cncc1C(OCc1ccc(Cl)cc1-c1ccccc1Cl)c1ccc(C#N)cc1 (stereo not given) | 8910
Cn1cncc1C(OCc1ccc(C#N)cc1C(=O)Nc1ccccc1)c1ccc(C#N)cc1 (stereo not given) | 2240

Structure (SMILES) | IC50 [nM]
Cc1ncc(C(OCc2ccc(C#N)cc2-c2ccc3c(c2)OCO3)c2ccc(C#N)cc2)n1C (stereo not given) | 1620
COC(=O)c1ccc(COC(c2ccc(C#N)cc2)c2cncn2C)c(-c2cccc(OC)c2)c1 (stereo not given) | 13200
N#Cc1ccc(C(OCc2ccc(C#N)cc2-c2ccc3c(c2)OCO3)c2cnccc2Cl)cc1 (stereo not given) | 15100
COCC(=O)Nc1ccc(COC(c2ccc(C#N)cc2)c2cncn2C)c(-c2cccc(OC)c2)c1 (stereo not given) | 11200
CCOc1cccc(-c2cc(C#N)ccc2COC(c2ccc(C#N)cc2)c2cncn2C)c1 (stereo not given) | 692
Cc1ccc(-c2cc(C#N)ccc2COC(c2ccc(C#N)cc2)c2cncn2C)cc1 (stereo not given) | 1120
CCOc1ccc(-c2cc(C#N)ccc2COC(c2ccc(C#N)cc2)c2cncn2C)cc1 (stereo not given) | 1200
COc1cccc(-c2cc(C=O)ccc2COC(c2ccc(C#N)cc2)c2cncn2C)c1 (stereo not given) | 1620
Cn1cncc1C(OCc1ccc(C#N)cc1-c1cccc(Cl)c1)c1ccc(C#N)cc1 (stereo not given) | 871
Cn1cncc1C(OCc1ccc(C#N)cc1C(=O)Nc1cccc(Cl)c1)c1ccc(C#N)cc1 (stereo not given) | 759
Cn1cncc1C(OCc1ccc(C#N)cc1-c1ccc2c(c1)OCO2)c1ccc(C#N)cc1 (stereo not given) | 871
COc1ccc(-c2cc(C#N)ccc2COC(c2ccc(C#N)cc2)c2cncn2C)cc1 (stereo not given) | 977
Cc1ncc(C(OCc2ccc(C#N)cc2-c2cccc(Cl)c2)c2ccc(C#N)cc2)n1C (stereo not given) | 2040
Cn1cncc1C(OCc1ccc(C#N)cc1-c1cc(F)cc(F)c1)c1ccc(C#N)cc1 (stereo not given) | 1000
COCc1cccc(-c2cc(C#N)ccc2COC(c2ccc(C#N)cc2)c2cncn2C)c1 (stereo not given) | 191
Cn1cncc1C(OCc1ccc(C#N)cc1NS(=O)(=O)c1cccc2ccccc12)c1ccc(C#N)cc1 (stereo not given) | 2630
CCOc1cccc(-c2cc(Cl)ccc2COC(c2ccc(C#N)cc2)c2cncn2C)c1 (stereo not given) | 1120
COc1cccc(-c2cc(C(=O)O)ccc2COC(c2ccc(C#N)cc2)c2cncn2C)c1 (stereo not given) | 83200
COc1cccc(-c2cc(NS(C)(=O)=O)ccc2COC(c2ccc(C#N)cc2)c2cncn2C)c1 (stereo not given) | 35500
Cn1cncc1C(OCc1ccc(C#N)cc1-c1cccc2ccccc12)c1ccc(C#N)cc1 (stereo not given) | 955
